Columns and labels:
colon cancer cells = assay: Proliferation and anchorage-independent growth of colon cancer cells (statements over several lines); format: cell-based; conditions: every cell line tested: HCT116, HT29, DLD1 and SW480
Protocol: (§1) Cells (8×10^3 per well) suspended in Basal Medium Eagle (BME) supplemented with 10% FBS were added to 0.3% agar with different doses of chemicals in a top layer over a basal layer of 0.6% agar. The cultures were maintained at 37° C. in a 5% CO2 incubator for 2 wk and then colonies were counted under a microscope using the Image-Pro Plus Software (v.4) program (Media Cybernetics).

DLD1 = assay: Soft agar assay, anchorage-independent growth, DLD1; format: cell-based
Protocol: (§2) (B) HI-B16 inhibited anchorage-independent growth of colon cancer cells. HCT116, HT29, DLD1 and SW480 were incubated in agar plate with or without HI-B16 and HI-B9. In every case, HI-B16 was better than HI-B9 treatment.
as §1

β-catenin = assay: Ex vivo pull-down with compound-conjugated Sepharose 4B beads and colon cancer cell lysate: β-catenin; format: binding; conditions: colon cancer cell lysates; compound-conjugated Sepharose 4B beads
Protocol: Protein extracts (500 μg) of colon cancer cells were mixed with Sepharose-4B beads (as a negative control) or chemical-conjugated Sepharose 4B beads (100 μl) in reaction buffer. After being washed five times with buffer, the proteins were visualized by Western blot analysis.

[1] = system: HCT116 colon cancer cells; assay: Soft agar assay, anchorage-independent growth, HCT116; format: cell-based
Protocol: (§3) FIG. 2. […] HCT116 and HT-29 colon cancer cells. Colony formation of two cell lines were inhibited by treatment of β-catenin inhibitor candidates. Cells (8×10^3/ml) were incubated with or without HI-B5 or HI-B9 compounds in 1 mL of 0.33% BME agar containing 10% FBS or in 3.5 mL of 0.5% BME agar containing 10% FBS. The cultures were maintained at 37° C. in a 5% CO2 incubator for 7 days, after which the cell colonies were counted under a microscope.
as §1

c-Myc and cyclin D1 = assay: Western blot analysis of β-catenin/Tcf-4 targets; format: cell-based
Protocol: Proteins from cell lysates were prepared, separated by SDS-PAGE and transferred to Immobilon-P membranes (Millipore Corporation, Billerica, Mass.). Membranes were blocked with 5% nonfat dry milk for 1 h at room temperature and incubated with each of the primary and secondary antibodies. The signal was detected with a chemiluminescence reagent (Amersham).

[2] = system: β-catenin/Tcf-4 luciferase activity; assay: β-catenin/Tcf-4 luciferase assay of HI-B9 derivatives (cell line not stated); format: cell-based; conditions: FIG. 6A
Protocol: as §2
Transient transfection was performed using jetPEI and assays to detect firefly luciferase and Renilla activities according to the manufacturer's manual (Promega). Briefly, cells were seeded onto 10-cm plates and co-transfected with 400 ng of the Renilla luciferase internal control gene and 4 μg of the TOP-flash luciferase reporter construct containing three tandem Tcf consensus binding sites upstream of luciferase cDNA, or the FOPflash luciferase reporter construct, a plasmid with mutated Tcf binding sites. After 16 h of transfection, cells were trypsinized and seeded onto 48-well plates, and cells were treated with respective chemicals for 24 h. Luciferase and Renilla activities were measured using their substrates.

SW480 = assay: Soft agar assay, anchorage-independent growth, SW480; format: cell-based
Protocol: as §2, §1

HT-29 colon cancer cells = assay: Soft agar assay, anchorage-independent growth, HT29; format: cell-based
Protocol: as §3, §1

[3] = target: T1, human β-catenin (126-781 amino acid residues) (Homo sapiens, UniProt P35222); assay: In vitro binding assay with purified β-catenin and compound-conjugated sepharose 4B bead
T1 construct: human β-catenin (126-781 amino acid residues)
T1 sequence (P35222 126-781): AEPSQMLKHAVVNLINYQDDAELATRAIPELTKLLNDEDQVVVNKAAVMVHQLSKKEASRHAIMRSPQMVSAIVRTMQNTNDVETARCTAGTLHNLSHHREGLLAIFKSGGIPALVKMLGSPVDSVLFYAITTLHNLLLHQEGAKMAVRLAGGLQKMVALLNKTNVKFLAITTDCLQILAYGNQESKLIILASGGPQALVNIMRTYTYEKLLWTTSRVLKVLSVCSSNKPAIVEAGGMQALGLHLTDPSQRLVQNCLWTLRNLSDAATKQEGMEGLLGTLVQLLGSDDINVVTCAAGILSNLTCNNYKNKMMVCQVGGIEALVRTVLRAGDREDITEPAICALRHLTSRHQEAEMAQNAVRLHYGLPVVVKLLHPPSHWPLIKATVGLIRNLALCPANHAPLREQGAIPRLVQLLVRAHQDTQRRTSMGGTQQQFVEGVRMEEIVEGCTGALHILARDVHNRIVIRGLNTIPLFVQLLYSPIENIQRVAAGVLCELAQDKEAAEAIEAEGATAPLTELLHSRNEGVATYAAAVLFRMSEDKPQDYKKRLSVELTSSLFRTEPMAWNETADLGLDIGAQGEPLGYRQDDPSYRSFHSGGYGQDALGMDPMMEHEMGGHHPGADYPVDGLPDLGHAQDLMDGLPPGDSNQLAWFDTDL
Protocol: FIGS. 7A-C. […] 2% of input from each experiments were used to show equal amount of incubated protein (purified or total cell lysates).
Based on the structure of the active compound HI-B9, additional analogs HI-B12, 13, 16, 17 and 20 (FIG. 5) were de novo designed and synthesized. […] 2% of input from each experiments were used to show equal amount of incubated protein (purified or total cell lysates).

binding of purified β-catenin to compound-conjugated bead (in vitro) [3]: bound
Compound: O=C(CC1(O)C(=O)Nc2ccc(F)cc21)c1ccc(O)c(C23CC4CC(CC(C4)C2)C3)c1 (centres unmarked) [HI-B16]
inhibition of anchorage-independent growth compared with HI-B9 treatment (colon cancer cells): more effective than HI-B9 | anchorage-independent growth (colony formation in soft agar) (DLD1): inhibit anchorage-independent growth | binding to β-catenin (ex vivo pull-down) (β-catenin): resulted in HI-B16/β-catenin binding | anchorage-independent growth (colony formation in soft agar) [1]: inhibit anchorage-independent growth | protein expression of c-Myc and cyclin D1 (c-Myc and cyclin D1): inhibited cyclin D1 and c-myc expression | β-catenin and Tcf-4 expression level (c-Myc and cyclin D1): not affected | inhibitory effect in β-catenin/Tcf-4 luciferase assay compared with HI-B9 [2]: exerted inhibitory effects better than HI-B9 | inhibition of luciferase activity ([2]; concentration not given): ~90% | anchorage-independent growth (colony formation in soft agar) (SW480): inhibit anchorage-independent growth | anchorage-independent growth (colony formation in soft agar) (HT-29 colon cancer cells): inhibit anchorage-independent growth

— US9616047B2, “Inhibitors of beta-catenin in treatment of colorectal cancer” (Regents of the University of Minnesota, priority 2014, dated 2017)
